According to ChEMBL document CHEMBL5236565, “Design, synthesis, and biological evaluation of novel 2'-methyl-2'-fluoro-6-methyl-7-alkynyl-7-deazapurine nucleoside analogs as anti-Zika virus agents” (Eur J Med Chem, 2022):

Assays:
[1] = system: Zika virus; assay: Antiviral activity against ZIKV infected in human A549 cells at 50 uM by microtiter assay relative to control; type: functional
[2] = system: A549; assay: Cytotoxicity against human A549 cells assessed as cell growth inhibition measured after 24 hrs by MTT assay; type: functional
[3] = system: Zika virus; assay: Antiviral activity against ZIKV ZG-01 infected in human A549 cells assessed as reduction in viral induced cytopathic effect by measuring reduction in PFU measured after 4 days by neutral red staining based plaque assay; type: functional, organism-based; settings: ZG-01, A549, 96 h; for EC90: time 4 day
[4] = target: NS5 (Zika virus, UniProt A0A143MHK7); assay: Binding affinity to N-terminal His-tagged recombinant ZIKV ZG-01 RdRp (272 to 903 residues) expressed in Escherichia coli rosetta by surface plasmon resonance assay
NS5, sequence (A0A143MHK7 whole entry, the tested form may be a part): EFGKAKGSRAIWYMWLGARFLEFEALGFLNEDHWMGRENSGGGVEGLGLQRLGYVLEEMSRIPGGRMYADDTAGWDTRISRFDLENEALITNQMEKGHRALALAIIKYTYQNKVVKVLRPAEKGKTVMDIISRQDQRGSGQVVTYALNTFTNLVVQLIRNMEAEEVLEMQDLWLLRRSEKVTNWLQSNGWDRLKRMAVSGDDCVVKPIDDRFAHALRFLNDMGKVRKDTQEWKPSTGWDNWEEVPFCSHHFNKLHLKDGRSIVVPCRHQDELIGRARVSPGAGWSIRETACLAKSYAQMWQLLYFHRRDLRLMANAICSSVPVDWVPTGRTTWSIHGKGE

| Kd [4] | Compound | Activity [1] | CC50 [2] | EC50 [3] | EC90 [3] |
| --- | --- | --- | --- | --- | --- |
|  | COc1cccc(C#Cc2cn([C@@H]3O[C@H](CO)[C@@H](O)[C@@]3(C)F)c3ncnc(C)c23)n1 | <10% |  |  |  |
|  | COc1ccccc1C#Cc1cn([C@@H]2O[C@H](CO)[C@@H](O)[C@@]2(C)F)c2ncnc(C)c12 | >90% | > 50 µM | 40.3 µM | > 50 µM |
|  | Cc1ncnc2c1c(C#Cc1ccccc1Br)cn2[C@@H]1O[C@H](CO)[C@@H](O)[C@@]1(C)F | >90% | > 50 µM | 9.6 µM | 19.7 µM |
|  | COCc1ccccc1C#Cc1cn([C@@H]2O[C@H](CO)[C@@H](O)[C@@]2(C)F)c2ncnc(C)c12 | >90% | > 50 µM | 13.5 µM | > 50 µM |
|  | Cc1cccc(C#Cc2cn([C@@H]3O[C@H](CO)[C@@H](O)[C@@]3(C)F)c3ncnc(C)c23)c1 | >90% | > 50 µM | 7.1 µM | 19.1 µM |
|  | Cc1ncnc2c1c(C#Cc1ncccn1)cn2[C@@H]1O[C@H](CO)[C@@H](O)[C@@]1(C)F | <10% |  |  |  |
|  | Cc1ncnc2c1c(C#Cc1nccs1)cn2[C@@H]1O[C@H](CO)[C@@H](O)[C@@]1(C)F | <10% |  |  |  |
|  | Cc1ncnc2c1c(C#Cc1ccccc1)cn2[C@@H]1O[C@H](CO)[C@@H](O)[C@@]1(C)F |  | > 50 µM | 13.8 µM | 33.6 µM |
|  | Cc1ncnc2c1c(C#Cc1ccc(Br)cc1F)cn2[C@@H]1O[C@H](CO)[C@@H](O)[C@@]1(C)F |  | > 50 µM | 3 µM | 7.9 µM |
|  | Cc1cccnc1C#Cc1cn([C@@H]2O[C@H](CO)[C@@H](O)[C@@]2(C)F)c2ncnc(C)c12 | <10% |  |  |  |
|  | Cc1ncnc2c1c(C1CC1c1ccccc1)cn2[C@@H]1O[C@H](CO)[C@@H](O)[C@@]1(C)F (stereo partly specified) | <10% |  |  |  |
|  | Cc1ncnc2c1c(C#Cc1ccc(Br)cc1)cn2[C@@H]1O[C@H](CO)[C@@H](O)[C@@]1(C)F | >90% | > 50 µM | 4.4 µM | 14.7 µM |
| 3.43 µM | C#C[C@@]1(O)[C@H](O)[C@@H](CO)O[C@H]1n1ccc2c(N)ncnc21 |  | > 50 µM | 14 µM | 30.9 µM |
|  | Cc1ccc(C#Cc2cn([C@@H]3O[C@H](CO)[C@@H](O)[C@@]3(C)F)c3ncnc(C)c23)cc1 | >90% | > 50 µM | 11.8 µM | 24.2 µM |
|  | CC#Cc1cn([C@@H]2O[C@H](CO)[C@@H](O)[C@@]2(C)F)c2ncnc(C)c12 | <10% |  |  |  |
|  | Cc1ncnc2c1c(C#Cc1ccccc1F)cn2[C@@H]1O[C@H](CO)[C@@H](O)[C@@]1(C)F | >90% | > 50 µM | 4.9 µM | 19.7 µM |
|  | Cc1ccsc1C#Cc1cn([C@@H]2O[C@H](CO)[C@@H](O)[C@@]2(C)F)c2ncnc(C)c12 | 40.2% |  |  |  |
|  | Cc1ncnc2c1c(-n1cc(-c3ccccc3)nn1)cn2[C@@H]1O[C@H](CO)[C@@H](O)[C@@]1(C)F | <10% |  |  |  |
|  | Cc1ncnc2c1c(C#Cc1cccc(Br)c1)cn2[C@@H]1O[C@H](CO)[C@@H](O)[C@@]1(C)F | >90% | > 50 µM | 4.5 µM | 15.4 µM |
|  | Cc1ncnc2c1c(C#CC1CC1)cn2[C@@H]1O[C@H](CO)[C@@H](O)[C@@]1(C)F | <10% |  |  |  |
